From patent publication US7420051B2, “Synthetic process for the manufacture of an ecteinaschidin compound” (Pharma Mar, S.A., priority 2000, dated 2008)

Legend:
Type in all cases: cell-based
[1] = test system: P-388 (suspension culture of a lymphoid neoplasm from DBA/2 mouse); assay: Cytotoxic activity screening, P-388 cells; settings: three days of incubation, approximate IC50
Description: (§1) Cell Cultures. Cells were maintained in logarithmic phase of growth in Eagle's Minimum Essential Medium, with Earle's Balanced Salts, with 2.0 mM L-glutamine, with non-essential amino acids, without sodium bicarbonate (EMEM/neaa); supplemented with 10% Fetal Calf Serum (FCS), 10^−2 M sodium bicarbonate and 0.1 g/l penicillin-G+streptomycin sulfate.
(§2) A simple screening procedure has been carried out to determine and compare the antitumour activity of these compounds, using an adapted form of the method described by Bergeron et al (1984). The tumour cell line employed have been P-388 (suspension culture of a lymphoid neoplasm from DBA/2 mouse), A-549 (monolayer culture of a human lung carcinoma), HT-29 (monolayer culture of a human colon carcinoma) and MEL-28 (monolayer culture of a human melanoma).
P-388 cell were seeded into 16 mm wells at 1×10^4 cells per well in 1 ml aliquots of MEM 5FCS containing the indicated concentration of drug. A separate set of cultures without drug was seeded as control growth to ensure that cells remained in exponential phase of growth. All determinations were carried out in duplicate.

DU-145 = assay: Cytotoxic activity screening, DU-145 cells
[2] = test system: HT-29 (monolayer culture of a human colon carcinoma); assay: Cytotoxic activity screening, HT-29 cells; settings: three days of incubation, Crystal Violet, approximate IC50
Description: as §1, §2
(§3) A-549, HT-29 and MEL-28 were seeded into 16 mm wells at 2×10^4 cells per well in 1 ml aliquots of MEM 10FCS containing the indicated concentration of drug. A separate set of cultures without drug was seeded as control growth to ensure that cells remained in exponential phase of growth. All determinations were carried out in duplicate. After three days of incubation at 37° C., 10% CO2 in a 98% humid atmosphere, the wells were stained with 0.1% Crystal Violet. An approximately IC50 was determined by comparing the growth in wells with drug to the growth in wells control.

[3] = test system: MEL-28 (monolayer culture of a human melanoma); assay: Cytotoxic activity screening, MEL-28 cells; settings: SK-MEL-28, 72 h, three days of incubation, Crystal Violet, approximate IC50
Description: as §1, §2, §3

[4] = test system: A-549 (monolayer culture of a human lung carcinoma); assay: Cytotoxic activity screening, A-549 cells; settings: three days of incubation, Crystal Violet, approximate IC50
Description: as §1, §2, §3

CV-1 = assay: Cytotoxic activity screening, CV-1 cells; settings: Cercopithecidae
[5] = Homo sapiens, DU-145, DU-145 cells

SMILES	IC50 ([1]; Mus musculus, P388, 72 h)	IC50 (DU-145; [5])	IC50 ([2]; Homo sapiens, HT-29, 72 h)	IC50 [3]	IC50 ([4]; Homo sapiens, A549, 72 h)	IC50 [1]	IC50 (DU-145; DU-145 cells)	IC50 [2]	IC50 [4]	IC50 (CV-1)
COc1c(C)cc2c(c1O)[C@@H]1C3Cc4c(O)c(C)c5c(c4[C@H](CNC(=O)[C@H](C)N)N3[C@@H](C#N)[C@H](C2)N1C)OCO5 (stereo partly drawn)	0.18 µM	0.9 µM	0.18 µM	0.8 µM	0.9 µM	–	–	–	–	–
C=CCOc1c(C)c2c(c3c1CC1[C@H]4c5c(cc(C)c(OC)c5OCOC)C[C@@H]([C@H](C#N)N1[C@H]3CN)N4C)OCO2 (stereo partly drawn) [drawing 81]	–	–	–	0.2 µM	–	0.2 µM	0.2 µM	0.2 µM	0.2 µM	–
COC1=C(C)C(=O)C2=C(C1=O)[C@H](CNC(=O)C(C)N=CSNc1ccccc1)N1C(C2)[C@H]2c3c(cc(C)c(OC)c3O)C[C@@H]([C@@H]1C#N)N2C (stereo partly drawn)	0.015 µM	–	0.015 µM	0.015 µM	0.015 µM	–	–	–	–	0.018 µM
COc1c(C)cc2c(c1O)[C@@H]1C3Cc4c(OC(C)=O)c(C)c5c(c4[C@H](CNC(=O)[C@@H](C)NC(=O)CC(C)C)N3[C@@H](C#N)[C@H](C2)N1C)OCO5 (stereo partly drawn)	0.0001 µM	0.0001 µM	0.0001 µM	0.0001 µM	0.0001 µM	–	–	–	–	–
COc1c(C)cc2c(c1O)[C@@H]1C3Cc4c(OC(C)=O)c(C)c5c(c4[C@H](CNC(=O)[C@H](C)NC(=O)C(F)(F)F)N3[C@@H](C#N)[C@H](C2)N1C)OCO5 (stereo partly drawn)	0.0001 µM	0.0001 µM	0.0001 µM	0.0001 µM	0.0001 µM	–	–	–	–	–
COCOc1c(OC)c(C)cc2c1[C@@H]1C3Cc4c(OC(C)=O)c(C)c5c(c4[C@H](CNC(C)=O)N3[C@@H](C#N)[C@H](C2)N1C)OCO5 (stereo partly drawn)	0.016 µM	0.016 µM	0.016 µM	0.016 µM	0.016 µM	–	–	–	–	–
COc1c(C)cc2c(c1O)[C@@H]1C3Cc4c(OC(C)=O)c(C)c5c(c4[C@H](CNC(=O)[C@H](C)NC(=O)CCCl)N3[C@@H](C#N)[C@H](C2)N1C)OCO5 (stereo partly drawn)	0.001 µM	0.001 µM	0.001 µM	0.001 µM	0.001 µM	–	–	–	–	–
COc1c(C)cc2c(c1O)[C@@H]1C3Cc4c(O)c(C)c5c(c4[C@H](CNC(=O)[C@H](C)NC(=S)Nc4ccccc4)N3[C@@H](C#N)[C@H](C2)N1C)OCO5 (stereo partly drawn)	0.14 µM	0.14 µM	0.14 µM	0.14 µM	0.14 µM	–	–	–	–	–
C/C=C(\OC(C)=O)C1=C(C2=COCO2)[C@H](CNC(=O)CCCC)N2C(C1)[C@H]1c3c(cc(C)c(OC)c3O)C[C@@H]([C@@H]2C#N)N1C (stereo partly drawn)	0.007 µM	0.007 µM	0.007 µM	0.007 µM	0.007 µM	–	–	–	–	–
COc1c(C)cc2c(c1O)[C@@H]1C3Cc4c(OC(C)=O)c(C)c5c(c4[C@H](CNC(=O)[C@@H](C)NC(=O)/C=C/c4cccc(C(F)(F)F)c4)N3[C@@H](C#N)[C@H](C2)N1C)OCO5 (stereo partly drawn)	0.001 µM	0.001 µM	0.001 µM	0.001 µM	0.001 µM	–	–	–	–	–
COc1c(C)cc2c(c1O)[C@@H]1C3Cc4c(OC(C)=O)c(C)c5c(c4[C@H](CNC(=O)[C@H](C)NC(=O)C(F)(F)F)N3[C@@H](O)[C@H](C2)N1C)OCO5 (stereo partly drawn)	0.0001 µM	0.0001 µM	0.0001 µM	0.0001 µM	0.0001 µM	–	–	–	–	–
C=CCOc1c(C)c2c(c3c1CC1[C@H]4c5c(cc(C)c(OC)c5OCOC)C[C@@H]([C@H](C#N)N1[C@H]3CN)N4C)OCO2 (stereo partly drawn) [drawing 80]	0.18 µM	–	–	–	–	–	–	–	–	1.8 µM
COCOc1c(OC)c(C)cc2c1[C@@H]1C3Cc4c(O)c(C)c5c(c4[C@H](CNC(C)=O)N3[C@@H](C#N)[C@H](C2)N1C)OCO5 (stereo partly drawn)	> 1.77 µM	> 1.77 µM	> 1.77 µM	> 1.77 µM	> 1.77 µM	–	–	–	–	–
C=CCOc1c(C)c2c(c3c1CC1[C@H]4c5c(cc(C)c(OC)c5OCOC)C[C@@H]([C@H](C#N)N1[C@H]3CNC(C)=O)N4C)OCO2 (stereo partly drawn)	> 1.65 µM	> 1.65 µM	> 1.65 µM	> 1.65 µM	> 1.65 µM	–	–	–	–	–
COc1c(C)cc2c(c1O)[C@@H]1C3Cc4c(OC(C)=O)c(C)c5c(c4[C@H](CNC(=O)[C@H](C)NC(=O)/C=C/c4ccccc4)N3[C@@H](C#N)[C@H](C2)N1C)OCO5 (stereo partly drawn)	0.001 µM	0.0005 µM	0.0005 µM	0.001 µM	0.001 µM	–	–	–	–	–
